From patent US20080096894A1, “Anti-Bacterial Compounds” (ASTON UNIVERSITY, priority 2005, published 2008)
≈ marks a conversion by molar mass, not a printed value. Like-named read-outs stand apart in the source and are kept apart here.

Tests used:
MRSA = experiment: MIC, agar dilution, multipoint inoculator; format: cell-based, methicillin-resistant Staphylococcus aureus; settings: Staphylococcus aureus
How it was run: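 Agar dilution MIC on Mueller Hinton agar, multipoint inoculator delivering 10^4 colony forming units per spot. MRSA values are ranges across ten clinical MRSA strains; S. aureus NCTC 6571 as reference strain.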

S. epidemisis = experiment: MIC, agar dilution, multipoint inoculator; format: cell-based, Staphylococcus epidermidis; settings: Staphylococcus epidermidis, upper value of MIC reading, read-out: MIC
How it was run: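 Read-out is the MIC by agar dilution. Plates contain Mueller Hinton agar; bacteria are applied via multipoint inoculator, 10^4 CFU per spot.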

- MIC (MRSA; 18 h, MRSA Isolate 1, upper value of MIC reading, read-out: MIC): 4 µg/mL (≈ 11.3 µM)
- MIC (MRSA; 18 h, MRSA Isolate 2, upper value of MIC reading, read-out: MIC): 4 µg/mL (≈ 11.3 µM)
- MIC (MRSA; 18 h, MRSA Isolate 3, upper value of MIC reading, read-out: MIC): 4 µg/mL (≈ 11.3 µM)
- MIC (MRSA; 18 h, MRSA Isolate 4, upper value of MIC reading, read-out: MIC): 4 µg/mL (≈ 11.3 µM)
- MIC (MRSA; 18 h, MRSA Isolate 5, upper value of MIC reading, read-out: MIC): 4 µg/mL (≈ 11.3 µM)
- MIC (MRSA; 18 h, MRSA Isolate 6, upper value of MIC reading, read-out: MIC): 4 µg/mL (≈ 11.3 µM)
- MIC (MRSA; 18 h, MRSA Isolate 7, upper value of MIC reading, read-out: MIC): 4 µg/mL (≈ 11.3 µM)
- MIC (MRSA; 18 h, MRSA Isolate 8, upper value of MIC reading, read-out: MIC): 4 µg/mL (≈ 11.3 µM)
- MIC (MRSA; 18 h, MRSA Isolate 9, upper value of MIC reading, read-out: MIC): 4 µg/mL (≈ 11.3 µM)
- MIC (MRSA; 18 h, MRSA Isolate 10, upper value of MIC reading, read-out: MIC): 4 µg/mL (≈ 11.3 µM)
- MIC (MRSA; MRSA, 18 h, panel of ten MRSA strains (clinical isolates), read-out: MRSA MIC range): 2 to 4 µg/mL (≈ 5.67 to 11.3 µM)
- MIC (MRSA; MRSA, the MRSA strains which were tested, read-out: MIC): 2 to 4 µg/mL (≈ 5.67 to 11.3 µM)
- MIC (S. epidemisis; 18 h, S. epidemisis Isolate 1): 4 µg/mL (≈ 11.3 µM)
- MIC (S. epidemisis; NCTC11047, 18 h, S. epidemisis NCTC 11047): 4 µg/mL (≈ 11.3 µM)
SMILES: CC(C)(C)c1cc(/C=N/N=C(\N)c2ccncc2)c(O)c(C(C)(C)C)c1 [Compound 4PYcq]
